Data published in US12528802B2, “Heterocyclic compound” (Takeda Pharmaceutical Company Limited, priority 2019, dated 2026).

biological target: T1, glucosylceramide synthase (Homo sapiens, UniProt Q16739); experiment: Glucosylceramide synthase (GCS) enzyme assay, microsome fraction, C8 glucosylceramide quantified by Rapidfire MS/MS; assay type: biochemical; settings: test compound 10 μM; 1.7 μM UDP-glucose, 3 μM C8 ceramide; room temperature 60 min
T1 construct: made in house; host or cells: Expi293F cells (transient expression, pcDNA3.3-TOPO vector); microsome fraction used as enzyme source
T1 sequence (Q16739 1-394): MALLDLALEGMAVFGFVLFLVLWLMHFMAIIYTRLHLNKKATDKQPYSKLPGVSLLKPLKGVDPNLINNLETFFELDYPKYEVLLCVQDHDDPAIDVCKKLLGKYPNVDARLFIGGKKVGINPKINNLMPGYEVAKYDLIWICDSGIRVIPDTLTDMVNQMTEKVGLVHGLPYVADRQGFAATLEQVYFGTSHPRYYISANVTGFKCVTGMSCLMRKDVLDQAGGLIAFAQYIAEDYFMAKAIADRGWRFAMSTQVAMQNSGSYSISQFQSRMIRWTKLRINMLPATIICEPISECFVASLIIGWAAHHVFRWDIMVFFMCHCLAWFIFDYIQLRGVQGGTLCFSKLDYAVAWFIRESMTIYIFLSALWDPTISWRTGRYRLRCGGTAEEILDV
Procedure: Glucosylceramide Synthase (GCS) Assay
In enzyme assay, a microsome fraction obtained by transient expression by Expi293F™ cells (catalog number: A14527, Thermo Fisher Scientific) was used as a glucosylceramide synthase source. Liposomal C8 ceramide and UDP-glucose were used as substrates. […] After the enzymatic reaction, the analysis was performed with Rapidfire MS/MS (API-4000™, SCIEX), and C8 glucosylceramide was quantified to evaluate the inhibitory activity of the test compound against glucosylceramide synthase activity.
PcDNA3.3TOPO vector (catalog number: K830001, Thermo Fisher Scientific) into which the human GCS gene was inserted was introduced into Expi293F™ Cells (catalog number: A14527, Thermo Fisher Scientific) by using ExpiFectamine™ 293 Transfection Kit (catalog number: A14525, Thermo Fisher Scientific). The cultured cells were dissolved in D-PBS (catalog number: 048-29805, Fuji Film Wako Pure Chemical Industries, Ltd.) containing 1 mM PMSF, and the solution was allowed to stand on ice for 30 minutes, and then subjected to cell disruption (homogenized). The disruption solution was centrifuged at 10,000×g for 20 minutes at 4° C., and the obtained supernatant was centrifuged at 142,400×g for 60 minutes at 4° C. The obtained precipitate was resuspended in a D-PBS solution containing 1 mM PMSF, and homogenized again to prepare as a microsome fraction. Protein quantification was performed by the CBB method.
A 1 mM compound solution prepared by dissolving the test compound in DMSO was added to a 384-well plate by 100 nL so that the final concentration of the test compound was 10 μM. Next, a substrate solution consisting of 3.4 μM UDP-glucose and 6 μM C8 ceramide was added by 5 μL, followed by an enzyme solution consisting of a 25 μg/mL microsome fraction by 5 μL. C8 ceramide was prepared from liposomes composed of 15 mol % C8 ceramide and 85 mol % dioleoyl phosphatidylcholine (1,2-dioleoyl-sn-glycero-3-phosphocholine: DOPC). The enzymatic reaction was carried out in a solution consisting of 20 mM tris-hydrochloric acid buffer (pH 7.5), 0.01% Tween 20, 0.01% bovine serum albumin and 1 mM dithiothreitol at room temperature for 60 min. Then, a solution consisting of 75% isopropanol and 1% formic acid containing 0.25 μM N-Octadecanoyl-D35-psichosine (catalog number: 1914, Matreya) as an internal standard substance was added by 60 μL to stop the enzymatic reaction. 5 μL of the centrifugal supernatant of the obtained reaction product was analyzed by Rapidfire MS/MS (Agilent Technologies) using API-4000™ (SCIEX), and the C8 glucosylceramide was quantified to evaluate the inhibitory activity of the test compound against the glucosylceramide synthase activity. The inhibitory activity of the test compound was evaluated when the C8 glucosylceramide level in the enzyme-free solution was considered as 100% inhibitory and the enzyme activity of the DMSO group in the absence of the compound was considered as 0% inhibitory.

With O=C1c2ccnc(-c3ccc(F)cc3OCC(F)(F)F)c2CN1c1ccc(C2(O)CCOC2)c(F)c1 (racemic) [Example 235, rac-2-[3-fluoro-4-(3-hydroxyoxolan-3-yl)phenyl]-4-[4-fluoro-2-(2,2,2-trifluoroethoxy)phenyl]-2,3-dihydro-1H-pyrrolo[3,4-c]pyridin-1-one] the “GCS enzyme inhibitory rate at 10 μM (%) (% of control)” value was 97%.
In the case of O=C1c2ccnc(-c3ccc(F)cc3OCC(F)(F)F)c2CN1c1ccc(C2(O)CCOC2)c(F)c1 (racemic) [Example 238, rac-2-[3-fluoro-4-(3-hydroxyoxolan-3-yl)phenyl]-4-[4-fluoro-2-(2,2,2-trifluoroethoxy)phenyl]-2,3-dihydro-1H-pyrrolo[3,4-c]pyridin-1-one], the “GCS enzyme inhibitory rate at 10 μM (%) (% of control)” value is reported as 95%.

same assay, conditions: test compound 10 μM; 1.7 μM UDP-glucose, 3 μM C8 ceramide; room temperature 60 min; read-out: GCS enzyme inhibitory rate at 10 μM (%) (% of control)

First: O=C1c2ccnc(-c3ccc(F)cc3OCC(F)(F)F)c2CN1c1ccc(C2(O)CCOC2)c(F)c1 (racemic) [Example 223, rac-2-[3-fluoro-4-(3-hydroxyoxolan-3-yl)phenyl]-4-[4-fluoro-2-(2,2,2-trifluoroethoxy)phenyl]-2,3-dihydro-1H-pyrrolo[3,4-c]pyridin-1-one]
Second: O=C1c2ccnc(-c3ccc(F)cc3OCC(F)(F)F)c2CN1c1ccc(C2(O)CCOC2)cn1 (racemic) [Example 256, rac-4-[4-fluoro-2-(2,2,2-trifluoroethoxy)phenyl]-2-[5-(3-hydroxyoxolan-3-yl)pyridin-2-yl]-2,3-dihydro-1H-pyrrolo[3,4-c]pyridin-1-one]
The inhibition at 10 µM of the first is lower: 96% for the first, 97% for the second.

Compared with CC(c1ccc(N2Cc3c(ccnc3-c3ccc(F)cc3OCC(F)(F)F)C2=O)cc1)N1CCCC1=O (racemic) [Example 232, rac-4-[4-fluoro-2-(2,2,2-trifluoroethoxy)phenyl]-2-{4-[1-(2-oxopyrrolidin-1-yl)ethyl]phenyl}-2,3-dihydro-1H-pyrrolo[3,4-c]pyridin-1-one], CC(O)c1ccc(N2Cc3c(ccnc3-c3ccc(F)cc3OCC(F)(F)F)C2=O)cc1 (racemic) [Example 282, rac-4-[4-fluoro-2-(2,2,2-trifluoroethoxy)phenyl]-2-[4-(1-hydroxyethyl)phenyl]-2,3-dihydro-1H-pyrrolo[3,4-c] pyridin-1-one] is higher in inhibition at 10 µM: 82% for the first, 99% for the second.

Compared with O=C1c2ccnc(-c3ccccc3OCC(F)(F)F)c2CN1c1ccc(C(O)C(F)(F)F)nc1 (racemic) [Example 249, rac-4-[2-(2,2,2-trifluoroethoxy)phenyl]-2-[6-(2,2,2-trifluoro-1-hydroxyethyl)pyridin-3-yl]-2,3-dihydro-1H-pyrrolo[3,4-c]pyridin-1-one], O=C1c2ccnc(-c3ccccc3OCC(F)(F)F)c2CN1c1ccc(C(O)C2CC2)nc1 (racemic) [Example 317, rac-2-{6-[cyclopropyl(hydroxy)methyl]pyridin-3-yl}-4-[2-(2,2,2-trifluoroethoxy)phenyl]-2,3-dihydro-1H-pyrrolo[3,4-c]pyridin-1-one] is higher in inhibition at 10 µM: 98% for the first, 99% for the second.

Compared with O=C1c2ccnc(-c3ccc(F)cc3OCC(F)(F)F)c2CN1c1ccc(C(O)C(F)F)cc1 (racemic) [Example 250, rac-2-[4-(2,2-difluoro-1-hydroxyethyl)phenyl]-4-[4-fluoro-2-(2,2,2-trifluoroethoxy)phenyl]-2,3-dihydro-1H-pyrrolo[3,4-c]pyridin-1-one], O=C1c2ccnc(-c3ccc(F)cc3OCC(F)(F)F)c2CN1c1ccc(C(O)C(F)(F)F)cc1 (racemic) [Example 251, rac-4-[4-fluoro-2-(2,2,2-trifluoroethoxy)phenyl]-2-[4-(2,2,2-trifluoro-1-hydroxyethyl)phenyl]-2,3-dihydro-1H-pyrrolo[3,4-c]pyridin-1-one] is lower in inhibition at 10 µM: 99% for the first, 96% for the second.

Going from CC(O)c1ccc(N2Cc3c(ccnc3-c3ccccc3OCC(F)(F)F)C2=O)cc1 (racemic) [Example 280, rac-2-[4-(1-hydroxyethyl)phenyl]-4-[2-(2,2,2-trifluoroethoxy)phenyl]-2,3-dihydro-1H-pyrrolo [3,4-c]pyridin-1-one] to O=C1c2ccnc(-c3ccccc3OCC(F)(F)F)c2CN1c1ccc(C(O)C2CC2)cc1 (racemic) [Example 329, rac-2-{4-[cyclopropyl(hydroxy)methyl]phenyl}-4-[2-(2,2,2-trifluoroethoxy)phenyl]-2,3-dihydro-1H-pyrrolo[3,4-c]pyridin-1-one], the inhibition at 10 µM rises from 99% to 100%.

Compared with CC(O)c1ccc(N2Cc3c(ccnc3-c3ccc(F)cc3OCC(F)(F)F)C2=O)cc1F (racemic) [Example 292, rac-2-[3-fluoro-4-(1-hydroxyethyl)phenyl]-4-[4-fluoro-2-(2,2,2-trifluoroethoxy)phenyl]-2,3-dihydro-1H-pyrrolo [3,4-c]pyridin-1-one], O=C1c2ccnc(-c3ccc(F)cc3OCC(F)(F)F)c2CN1c1ccc(C(O)C(F)(F)F)c(F)c1 (racemic) [Example 293, rac-4-[4-fluoro-2-(2,2,2-trifluoroethoxy)phenyl]-2-[3-fluoro-4-(2,2,2-trifluoro-1-hydroxyethyl)phenyl]-2,3-dihydro-1H-pyrrolo [3,4-c]pyridin-1-one] is lower in inhibition at 10 µM: 99% for the first, 88% for the second.

Compared with CC(O)(c1ccc(N2Cc3c(ccnc3-c3ccccc3OCC(F)(F)F)C2=O)cc1)C(F)(F)F (racemic) [Example 295, rac-4-[2-(2,2,2-trifluoroethoxy)phenyl]-2-[4-(1,1,1-trifluoro-2-hydroxypropan-2-yl)phenyl]-2,3-dihydro-1H-pyrrolo[3,4-c]pyridin-1-one], CC(O)(c1ccc(N2Cc3c(ccnc3-c3ccc(F)cc3OCC(F)(F)F)C2=O)cc1)C(F)(F)F (racemic) [Example 312, rac-4-[4-fluoro-2-(2,2,2-trifluoroethoxy)phenyl]-2-[4-(1,1,1-trifluoro-2-hydroxypropan-2-yl)phenyl]-2,3-dihydro-1H-pyrrolo [3,4-c]pyridin-1-one] is lower in inhibition at 10 µM: 100% for the first, 99% for the second.

CC(O)(c1ccc(N2Cc3c(ccnc3-c3ccc(F)cc3OCC(F)(F)F)C2=O)cc1)C(F)F (racemic) [Example 296, rac-2-[4-(1,1-difluoro-2-hydroxypropan-2-yl)phenyl]-4-[4-fluoro-2-(2,2,2-trifluoroethoxy)phenyl]-2,3-dihydro-1H-pyrrolo[3,4-c]pyridin-1-one] and CC(O)(c1ccc(N2Cc3c(ccnc3-c3ccccc3OCC(F)(F)F)C2=O)cc1)C(F)F (racemic) [Example 308, rac-2-[4-(1,1-difluoro-2-hydroxypropan-2-yl)phenyl]-4-[2-(2,2,2-trifluoroethoxy)phenyl]-2,3-dihydro-1H-pyrrolo[3,4-c]pyridin-1-one] are the same in inhibition at 10 µM: 100% for the first, 100% for the second.

Going from COC(=O)c1ccc(N2CC3=C(OC(C)CN=C3c3ccccc3OCC(F)(F)F)C2=O)cc1 (racemic) [Example 332, rac-methyl 4-{2-methyl-8-oxo-5-[2-(2,2,2-trifluoroethoxy)phenyl]-2,3,6,8-tetrahydro-7H-pyrrolo [3,4-f][1,4]oxazepin-7-yl}benzoate] to CC(O)c1cc2c(c(-c3ccccc3OCC(F)(F)F)n1)CN(c1ccc(OCC(F)(F)F)cc1)C2=O (racemic) [Example 341, rac-6-(1-hydroxyethyl)-4-[2-(2,2,2-trifluoroethoxy)phenyl]-2-[4-(2,2,2-trifluoroethoxy)phenyl]-2,3-dihydro-1H-pyrrolo[3,4-c]pyridin-1-one], the inhibition at 10 µM rises from 96% to 100%.
